Experiments:
[1] = test system: Rattus norvegicus; assay: Tmax in Sprague Dawley rat assessed as 6-Phenyl-5-[4-(qumolm-2-ylmethoxy)phenyl]pyridm-2(1H)-one at 11.04 mg/kg, po measured up to 8 hrs; type: ADME, organism-based; conditions: in vivo
[2] = test system: Rattus norvegicus; assay: Cmax in Sprague Dawley rat assessed as 6-Phenyl-5-[4-(qumolm-2-ylmethoxy)phenyl]pyridm-2(1H)-one at 11.04 mg/kg, po measured up to 8 hrs; type: ADME, organism-based; set-up: dose 11.04 mg/kg, route oral; conditions: in vivo
[3] = test system: Rattus norvegicus; assay: AUC (0 to t) in Sprague Dawley rat assessed as 6-Phenyl-5-[4-(qumolm-2-ylmethoxy)phenyl]pyridm-2(1H)-one at 11.04 mg/kg, po measured up to 8 hrs; type: ADME, organism-based; set-up: time < 8 hr, dose 11.04 mg/kg, route oral; conditions: in vivo
[4] = Drug level in liver microsomes (unknown origin) treated with 6-(4-Fluorophenyl)-5-[4-quinolin-2-ylmethoxy)phenyl]-pyridine-2(1H)-one incubated for 60 mins measured by LC-MS/MS analysis in presence of UDPGA; type: ADME
[5] = Drug level in intestinal microsomes (unknown origin) treated with 6-(4-Fluorophenyl)-5-[4-quinolin-2-ylmethoxy)phenyl]-pyridine-2(1H)-one incubated for 60 mins measured by LC-MS/MS analysis in presence of UDPGA; type: ADME, Intestine
[6] = test system: Rattus norvegicus; assay: Cmax in Sprague Dawley rat assessed as 6-(2,4-Difluorophenyl)-5-[4-(quinolin-2-ylmethoxy)phenyl]-pyridin-2(1H)-one at 11.04 mg/kg, po measured up to 8 hrs; type: ADME, organism-based; set-up: dose 11.04 mg/kg, route oral; conditions: in vivo
[7] = test system: Rattus norvegicus; assay: Tmax in Sprague Dawley rat assessed as 6-(2,4-Difluorophenyl)-5-[4-(quinolin-2-ylmethoxy)phenyl]-pyridin-2(1H)-one at 11.04 mg/kg, po measured up to 8 hrs; type: ADME, organism-based; conditions: in vivo
[8] = test system: Rattus norvegicus; assay: AUC (0 to t) in Sprague Dawley rat assessed as 6-(2,4-Difluorophenyl)-5-[4-(quinolin-2-ylmethoxy)phenyl]-pyridin-2(1H)-one at 11.04 mg/kg, po measured up to 8 hrs; type: ADME, organism-based; set-up: dose 11.04 mg/kg, time < 8 hr, route oral; conditions: in vivo
[9] = test system: Canis familiaris; assay: AUC (0 to 24 hrs) in Beagle dog assessed as 6-(4-Fluorophenyl)-5-[4-quinolin-2-ylmethoxy)phenyl]-pyridine-2(1H)-one at […], iv; type: ADME, organism-based, Canis lupus familiaris; set-up: time < 24 hr, dose 1.1 mg/kg, route intravenous; conditions: in vivo
[10] = test system: Rattus norvegicus; assay: Cmax in Sprague Dawley rat assessed as 6-(4-Fluorophenyl)-5-[4-quinolin-2-ylmethoxy)phenyl]-pyridine-2(1H)-one at 11.04 mg/kg, po measured up to 8 hrs; type: ADME, organism-based; set-up: dose 11.04 mg/kg, route oral; conditions: in vivo
[11] = test system: Rattus norvegicus; assay: Tmax in Sprague Dawley rat assessed as 6-(4-Fluorophenyl)-5-[4-quinolin-2-ylmethoxy)phenyl]-pyridine-2(1H)-one at 11.04 mg/kg, po measured after 8hrs; type: ADME, organism-based; conditions: in vivo
[12] = test system: Rattus norvegicus; assay: AUC (0 to t) in Sprague Dawley rat assessed as 6-(4-Fluorophenyl)-5-[4-quinolin-2-ylmethoxy)phenyl]-pyridine-2(1H)-one at 11.04 mg/kg, po measured after 8hrs; type: ADME, organism-based; conditions: in vivo
[13] = test system: Rattus norvegicus; assay: AUC (0 to 24 hrs) in Sprague Dawley rat assessed as 6-(4-Fluorophenyl)-5-[4-quinolin-2-ylmethoxy)phenyl]-pyridine-2(1H)-one at […], iv; type: ADME, organism-based; set-up: dose 1.1 mg/kg, time < 24 hr, route intravenous; conditions: in vivo
[14] = test system: Canis familiaris; assay: Cmax in Beagle dog assessed as 6-(4-Fluorophenyl)-5-[4-quinolin-2-ylmethoxy)phenyl]-pyridine-2(1H)-one at 11.04 mg/kg, po; type: ADME, organism-based, Canis lupus familiaris; set-up: dose 11.04 mg/kg, route oral; conditions: in vivo
[15] = test system: Canis familiaris; assay: AUC (0 to 24 hrs) in Beagle dog assessed as 6-(4-Fluorophenyl)-5-[4-quinolin-2-ylmethoxy)phenyl]-pyridine-2(1H)-one at 11.04 mg/kg, po; type: ADME, organism-based, Canis lupus familiaris; set-up: dose 11.04 mg/kg, time < 24 hr, route oral; conditions: in vivo
[16] = test system: Canis familiaris; assay: Tmax in Beagle dog assessed as 6-(4-Fluorophenyl)-5-[4-quinolin-2-ylmethoxy)phenyl]-pyridine-2(1H)-one at 11.04 mg/kg, po; type: ADME, organism-based, Canis lupus familiaris; conditions: in vivo
[17] = test system: Cynomolgus monkey; assay: AUC (0 to 24 hrs) in cynomolgus monkey assessed as 6-(4-Fluorophenyl)-5-[4-quinolin-2-ylmethoxy)phenyl]-pyridine-2(1H)-one at […], iv; type: ADME, organism-based, Macaca fascicularis; set-up: time < 24 hr, dose 1.1 mg/kg, route intravenous; conditions: in vivo
[18] = test system: Cynomolgus monkey; assay: Cmax in cynomolgus monkey assessed as 6-(4-Fluorophenyl)-5-[4-quinolin-2-ylmethoxy)phenyl]-pyridine-2(1H)-one at 11.04 mg/kg, po; type: ADME, organism-based, Macaca fascicularis; set-up: dose 11.04 mg/kg, route oral; conditions: in vivo
[19] = test system: Cynomolgus monkey; assay: AUC (0 to 24 hrs) in cynomolgus monkey assessed as 6-(4-Fluorophenyl)-5-[4-quinolin-2-ylmethoxy)phenyl]-pyridine-2(1H)-one at 11.04 mg/kg, po; type: ADME, organism-based, Macaca fascicularis; set-up: time < 24 hr, dose 11.04 mg/kg, route oral; conditions: in vivo
[20] = test system: Cynomolgus monkey; assay: Tmax in cynomolgus monkey assessed as 6-(4-Fluorophenyl)-5-[4-quinolin-2-ylmethoxy)phenyl]-pyridine-2(1H)-one at 11.04 mg/kg, po; type: ADME, organism-based, Macaca fascicularis; conditions: in vivo

CC(=O)Oc1ccc(-c2ccc(OCc3ccc4ccccc4n3)cc2)c(-c2ccccc2)n1
Tmax [1]: 1 h | Cmax [2]: 372 ng/mL | AUCt [3]: 1497 ng·h/mL

O=C(O)[C@H]1O[C@@H](Oc2ccc(-c3ccc(OCc4ccc5ccccc5n4)cc3)c(-c3ccc(F)cc3)n2)[C@H](O)[C@@H](O)[C@@H]1O
Drug metabolism [4]: metabolite_detected | Drug metabolism [5]: metabolite_detected

CC(=O)Oc1ccc(-c2ccc(OCc3ccc4ccccc4n3)cc2)c(-c2ccc(F)cc2F)n1
Cmax [6]: 266 ng/mL | Tmax [7]: 2 h | AUCt [8]: 1764 ng·h/mL

CC(=O)Oc1ccc(-c2ccc(OCc3ccc4ccccc4n3)cc2)c(-c2ccc(F)cc2)n1
AUC [9]: 841 ng·h/mL | Cmax [10]: 372 ng/mL | Tmax [11]: 1 h | AUCt [12]: 2436 ng·h/mL | AUC [13]: 492 ng·h/mL | Cmax [14]: 49 ng/mL | AUC [15]: 555 ng·h/mL | Tmax [16]: 1 h | AUC [17]: 1314 ng·h/mL | Cmax [18]: 38 ng/mL | AUC [19]: 345 ng·h/mL | Tmax [20]: 6 h

CN(C)C(=O)Oc1ccc(-c2ccc(OCc3ccc4ccccc4n3)cc2)c(-c2ccc(F)cc2)n1
Cmax [10]: 42 ng/mL | Tmax [11]: 1 h | AUCt [12]: 182 ng·h/mL

Reference: ChEMBL document CHEMBL3632475, “Design, Synthesis, and Pharmacological Evaluation of 5,6-Disubstituted Pyridin-2(1H)-one Derivatives as Phosphodiesterase 10A (PDE10A) Antagonists” (J Med Chem, 2015)
